Test results reported in patent US7585851B2, “3′-prodrugs of 2′-deoxy-β-L-nucleosides” (priority 2000, dated 2009).
Values joined by “and” are separate entries in the source; they are usually repeats but may differ in a detail not shown here. Equal entries are not always repeated. “Also recorded” adds a separate entry of the source. Where two headings read alike, the source gives them in different places.

Tests used:
[1] = test system: cultured CHO cells; test: Chromosomal aberration assay; format: cell-based, Chinese hamster; details: with and without metabolic activation, 5000 μg/mL
[2] = test system: cytosolic extracts of HepG2 cells; test: Steady state phosphorylation kinetics in HepG2 cytosolic extracts; format: biochemical, human
[3] = test system: Rhinovirus type 5; test: Antiviral panel: Rhinovirus type 5 (KB); format: cell-based
[4] = test system: CV-1, African green monkey kidney fibroblast cells
[5] = test system: MDCK, canine kidney epithelial cells
[6] = test system: WHV; details: 0.01-10 mg/kg/day orally, woodchucks
[7] = format: in vivo; details: woodchuck; for AUCt→24: t = […]; for Cmax: analyte = label, read-out: Cmax in plasma
[8] = test system: HCMV; test: Antiviral panel: HCMV (HFF); format: cell-based
[9] = monkey, in vivo, 2000 mg/kg
[10] = test system: HBV; test: Anti-HBV activity in HBV-expressing 2.2.15 cells (HBV DNA reduction); details: 2.2.15 cells
[11] = test system: Daudi, Burkitt's B-cell lymphoma
[12] = human
[13] = format: in vivo, cynomologus monkey
Description: The pharmacokinetics of L-dC following IV and oral administration of L-dC to cynomologus monkeys was determined. […] Following a six week washout period, the same three monkeys received an identical oral dose of L-dC. Blood samples for pharmacokinetic analysis were collected pre-dose and at 0.25, 0.5, 1, 2, 3, 6, 8 and 24 hours after dosing. Urine samples for pharmacokinetic analyses were collected via pan catch pre-dose and over the following intervals post-dose: 0-2, […], 4-8, and 8-12 hours, and then over 12-hour intervals thereafter through 336 hours post-dose. The drug was detected and the concentration determined using a reverse-phase high-performance liquid chromatography technique.

[14] = L-dC 10 mg/kg IV, cynomologus monkey
[15] = L-dC 10 mg/kg oral, cynomologus monkey

Q: What does the source list for `Nc1ccn([C@@H]2C[C@@H](O)[C@H](CO)O2)c(=O)n1` [L-dC, 2′-deoxy-β-L-cytidine]?
A: chromosomal aberrations [1]: no evidence of chromosomal aberrations; Vmax of phosphorylation [2]: 1.12 mmol/min/mg protein; EC50 [3]: > 100000 nM; CC50 [4]: > 100000 nM; CC50 [5]: > 100000 nM; toxicity during four-week treatment and eight-week follow-up [6]: no drug-related toxicity; also recorded: no toxicity was observed; CL ([7]; L-dC 10 mg/kg IV): 6.5 mL/min/kg; Tmax ([7]; L-dC 10 mg/kg IV): 0 h; Vd ([7]; L-dC 10 mg/kg IV): 1.17 L/kg; t1/2 ([7]; L-dC 10 mg/kg IV): 2.85 h; AUCt→24 ([7]; L-dC 10 mg/kg IV): 174 µM·h; Cmax ([7]; L-dC 10 mg/kg IV): 112 µM; oral bioavailability F ([7]; L-dC 10 mg/kg PO vs IV): 9.57%; Tmax ([7]; L-dC 10 mg/kg PO): 3 h; t1/2 ([7]; L-dC 10 mg/kg PO): 5.22 h; AUCt→24 ([7]; L-dC 10 mg/kg PO): 11.3 µM·h; Cmax ([7]; L-dC 10 mg/kg PO): 1.37 µM; EC50 [8]: >100 µg/mL; estimated terminal phase mean half-lives [9]: 4 to 5 h; EC90 ([10]; 10-fold reduction of HBV virion DNA levels (Table 25)): 1100 ± 100 nM; EC50 ([10]; read-out: EC50 for reduction in extracellular HBV DNA): 240 nM; EC50 ([10]; read-out: EC50 for reduction of intracellular HBV DNA replicative intermediates (RI)): 510 nM and 500 nM; EC90 ([10]; read-out: EC90 against HBV replication (extracellular HBV DNA)): 1070 nM and 1060 nM; CC50 [11]: >50 µg/mL; plasma protein binding [12]: 19.7%±5.9%; renal clearance as share of total L-dC clearance ([13]; IV): 87%; share of the dose recovered in the urine, by analyte ([13]; IV L-dC, analyte = label): 94%; administered dose recovered in urine ([13]; IV, within 2 hours): 71%; CL [13, 14]: 8.83 mL/min/kg; CLR [13, 14]: 7.67 mL/min/kg; Cmax [13, 14]: 95.7 µM; Tmax [13, 14]: 0 h; Vd [13, 14]: 1.22 L/kg; t1/2 [13, 14]: 1.59 h; oral bioavailability F ([13]; L-dC 10 mg/kg oral vs IV, cynomologus monkey): 16.4%; Cmax [13, 15]: 3.38 µM; Tmax [13, 15]: 2.33 h; terminal t1/2 [13, 15]: 2.95 h; share of drug excreted / recovered dose in urine, by analyte ([13]; oral L-dC, analyte = label): ~69%; administered oral dose recovered in urine ([13]; after 72 hours): 15.5%±8%; administered oral dose recovered in urine ([13]; within 12 hours): Approximately 8.5%
